Experimental data as given in patent US12343430B2, “Methods of improving pharmaceutical substance solubilization and products thereof” (MUDANJIANG LINRUN PHARAMA EXCIPIENTS LLC., priority 2019, dated 2025).
In brackets after ≈: the same amount, converted by molar mass.

What was measured:
[1] = Solubility time profile of co-attrited Carbamazepine at 37° C. (Example 12); type: physicochemical; conditions: 100 mL DI water, 0.45 μm filter, UV 285 nm
Description: All the final extrudant samples from Examples 8-11 were milled into powder and passed through an 80 mesh screen. […] At each sampling time, the solution sample was taken and filtered through a 0.45 μm syringe microfilter. […] For reference, the API Carbamazepine sample was used as control.

[2] = Solubility time profile of co-attrited Carbamazepine at 25° C., HPLC (Example 14); type: physicochemical; conditions: 500 mL DI water, paddle 100 rpm
Description: At each time interval, a given amount of solution was sampled and tested by an HPLC method.

Solubility ([1]; 60 min): 320 µg/mL (≈ 1350 µM) | Solubility ([1]; 180 min): 288 µg/mL (≈ 1220 µM) | solubility at 5 min ([1]; deionised water, thermodynamic from solid, 5 min): 404 µg/mL (≈ 1710 µM) | solubility at 10 min ([1]; deionised water, thermodynamic from solid, 10 min): 402 µg/mL (≈ 1700 µM) | solubility at 15 min ([1]; deionised water, thermodynamic from solid, 15 min): 401 µg/mL (≈ 1700 µM) | solubility at 90 min ([1]; deionised water, thermodynamic from solid, 90 min): 316 µg/mL (≈ 1340 µM) | solubility at 120 min ([1]; deionised water, thermodynamic from solid, 120 min): 303 µg/mL (≈ 1280 µM) | Solubility, drug concentration ([2]; 15 minutes): 225.68 µg/mL (≈ 955 µM) | Solubility, drug concentration ([2]; 30 minutes): 202.16 µg/mL (≈ 856 µM) | solubility at 5 min ([2]; deionised water, thermodynamic from solid, 5 minutes, read-out: Solubility, drug concentration): 89.2 µg/mL (≈ 377 µM) | solubility at 10 min ([2]; deionised water, thermodynamic from solid, 10 minutes, read-out: Solubility, drug concentration): 176 µg/mL (≈ 743 µM) | solubility at 45 min ([2]; deionised water, thermodynamic from solid, 45 minutes, read-out: Solubility, drug concentration): 175 µg/mL (≈ 741 µM) | solubility at 60 min ([2]; deionised water, thermodynamic from solid, 60 minutes, read-out: Solubility, drug concentration): 173 µg/mL (≈ 731 µM)
Compound: NC(=O)N1c2ccccc2C=Cc2ccccc21 [Carbamazepine API, Carbamazepine]
